Patent US20120148595A1, “GABA-LINKED ANTHRACYCLINE-LIPID CONJUGATES” (Luitpold Pharmaceuticals, Inc., priority 2009, published 2012)
Converted amounts (≈) assume the structure as drawn. “And” between values parts separate entries of the source, which are not always exact repeats. Equal values may be shown once. “Also recorded” adds a separate entry of the source. Read-outs that look alike come from different tables or passages of the source.

Legend:
[1] = test system: Madison 109 (M109) mouse lung carcinoma
Procedure: In all of the following in vivo experiments, the parent compound, doxorubicin, was injected intravenously (i.v.) in saline, while the fatty acid conjugates of doxorubicin were injected i.v. in 10% Cremophor® EL-P/10% ethanol/80% saline. The dosing schedule was Q3D×5.
T-C in this assay is defined as the time in days for the drug-treated tumors to double their mass three times subtracted […] to double their mass three times.

HT-29 human colon tumor = test: nude mouse xenograft model of the HT-29 human colon tumor; type: in vivo; settings: for Complete Regressions / Days Delay T-C / Drug-related Deaths: nude mouse
Procedure: (§1) The dosing schedule was Q3D×5.
In the nude mouse xenograft model of the HT-29 human colon tumor (Table 3), doxorubicin produced a T-C delay of 15.3 days at the MTD dose of 6 mg/kg, whereas P-367 (LOC-GABA-doxorubicin) produced a T-C delay of 32 days at 50 mg/kg and 22 at 25 mg/kg. Note that the activity of the lowest dose of LOC-GABA-doxorubicin is approximately equivalent to the highest, MTD of doxorubicin itself.

[2] = Solubility in solvents/excipients; type: physicochemical
Description: Table 7 summarizes the solubility of LOC-GABA-doxorubicin in several solvents.

M109-Lung Tumor = M109-Lung Tumor Model (Table 5, second study with OOC-GABA-doxorubicin); type: in vivo, mouse
Description: as §1

[3] = test system: MDA-MB-435 human breast tumor; test: nude mouse xenograft model of the MDA-MB-435 human breast tumor; type: in vivo; settings: for Complete Regressions / Days Delay T-C / Drug-related Deaths: nude mouse
Procedure: as §1
In the nude mouse xenograft model of the MDA-MB-435 human breast tumor (Table 4), doxorubicin produced a T-C delay of 14 days at the approximate MTD dose of 6 mg/kg (1/10 drug-related deaths). In the same model, LOC-GABA-doxorubicin produced a T-C delay of 13 days at 50 mg/kg (6/10 drug-related deaths) and 1.5 days at 25 mg/kg (0 drug-related deaths).

tumor growth = test: anti-tumor activity of GABA-linked conjugate compared to the unconjugated anticancer agent (model not given); type: in vivo; settings: model not specified
Description: The anti-tumor activity of LOC-GABA-doxorubicin was studied in three tumor models.

[4] = Toxicology: maximum tolerated dose, i.v. Q3D×5; settings: mouse, in vivo, iv; i.v. 5 times on a once every three day schedule
Description: as §1

[5] = Stability in mouse serum/plasma at 37° C., HPLC; type: in vitro ADME
Procedure: […] Serum samples added with only ethanol/Cremophor® were used as controls.
Aliquots (100 μL) were taken from the spiked samples at 0, 1, 4, 8 and 24 h time intervals. Proteins were precipitated from the spiked solutions by the addition of 300 μL of acetonitrile. The suspensions were centrifuged and the supernatant transferred to separate microfuge tubes. The precipitate was washed twice with 300 μL of 90% acetonitrile. The wash solutions were combined with the supernatant and evaporated to dryness using a Centrivap Concentrator. The residue was then dissolved in 100 μL of methanol. Vortex mixing and sonication for 30 sec each were used to help dissolve the residue. The solution was then centrifuged at 10,000 rpm for 15 min. A 20 μL aliquot of the supernatant was analyzed by HPLC (Phenomenex column, C18, 250×4.6 mm, 5 u) using the following gradient conditions: […]
UV detection: 487 nm; column temperature: 40° C.; flow rate: 1 mL/min. Analytes were quantitated by comparison of peak areas from direct injections of standard solutions with those obtained from samples subjected to the extraction procedure. The percent recovery of spiked analytes was calculated by comparison of the sample peak areas before incubation (time: 0 h) with those subjected to incubation at 37° C. […]

## CCCCC/C=C\C/C=C\CCCCCCCCOC(=O)NCCCC(=O)N[C@H]1C[C@H](O[C@H]2C[C@](O)(C(=O)CO)Cc3c(O)c4c(c(O)c32)C(=O)c2c(OC)cccc2C4=O)O[C@@H](C)[C@H]1O [LOC-GABA-doxorubicin, linoleyl alcohol-GABA-doxorubicin]
[1]; 50 mg/kg i.v. Q3D×5
  Drug-related Deaths: 0/5
  Tumor Growth Delay T-C: 28 days
[1]; 75 mg/kg i.v. Q3D×5
  Complete Regressions: 0
  Drug-related Deaths: 0/5
  Tumor Growth Delay T-C: 25 days
[1]; 100 mg/kg i.v. Q3D×5
  Complete Regressions: 0
  Drug-related Deaths: 4/5
[1]; 150 mg/kg i.v. Q3D×5
  Complete Regressions: 0
  Drug-related Deaths: 4/5
HT-29 human colon tumor; 12.5 mg/kg i.v. Q3D×5
  Complete Regressions: 0
  Days Delay T-C: 5.4 days
  Drug-related Deaths: 0/10
HT-29 human colon tumor; 25 mg/kg i.v. Q3D×5
  Complete Regressions: 0
  Days Delay T-C: 22 days
  Drug-related Deaths: 0/10
HT-29 human colon tumor; 50 mg/kg i.v. Q3D×5
  Complete Regressions: 0
  Days Delay T-C: 32 days
  Drug-related Deaths: 0/10
HT-29 human colon tumor; 75 mg/kg i.v. Q3D×5
  Complete Regressions: 0
  Days Delay T-C: 34 days
  Drug-related Deaths: 6/10
HT-29 human colon tumor; HT29 human colon carcinoma xenograft
  anti-tumor activity compared to doxorubicin: activity superior to doxorubicin; also recorded: superior anti-tumor activity
[2]; aqueous with cosolvent or surfactant or cyclodextrin, Cremophor ® EL-P:ethanol:saline (10:10:80)
  solubility: 16.8 mg/mL (≈ 18.2 mM)
[2]; dimethyl isosorbide (DMI), organic solvent or mixture
  solubility: 490 mg/mL (≈ 533 mM)
[2]; ethanol, organic solvent or mixture
  solubility: 252 mg/mL (≈ 274 mM)
M109-Lung Tumor; 35 mg/kg i.v. Q3D×5
  Complete Regressions: 0
  Days Delay T-C: 1.1 days
  Drug-related Deaths: 0/5
M109-Lung Tumor; 50 mg/kg i.v. Q3D×5
  Complete Regressions: 0
  Days Delay T-C: 5.2 days
  Drug-related Deaths: 0/5
M109-Lung Tumor; 65 mg/kg i.v. Q3D×5
  Complete Regressions: 0
  Days Delay T-C: 9.3 days
  Drug-related Deaths: 0/5
M109-Lung Tumor; 80 mg/kg i.v. Q3D×5
  Complete Regressions: 0
  Days Delay T-C: 9.5 days
  Drug-related Deaths: 0/5
[3]; 12.5 mg/kg i.v. Q3D×5
  Complete Regressions: 0
  Days Delay T-C: -2.0 days
  Drug-related Deaths: 0/10
[3]; 25 mg/kg i.v. Q3D×5
  Complete Regressions: 0
  Days Delay T-C: 1.5 days
  Drug-related Deaths: 0 and 0/10
[3]; 50 mg/kg i.v. Q3D×5
  Complete Regressions: 0
  Days Delay T-C: 13 days
  Drug-related Deaths: 6/10
[3]; 75 mg/kg i.v. Q3D×5
  Complete Regressions: 0
  Days Delay T-C: 21 days
  Drug-related Deaths: 9/10
[3]; MDA-MB-435 human breast carcinoma xenograft
  anti-tumor activity compared to doxorubicin: active, but somewhat less active than doxorubicin and somewhat less efficacious than doxorubicin and not
Tumor growth
  anti-tumor activity compared to the unconjugated drug: superior
[4]
  MTD: 50 to 75 mg/kg
[5]; 10 mg/mL formulation pH 7.5, 10 parts to 90 parts plasma
  time stable in mouse plasma: more than 8 hours
[5]; mouse plasma, 24 hours
  drug still present: over 90%
